Patent publication US20150291933A1, “CELL DIFFERENTIATION” (THE UNIVERSITY OF MANCHESTER, priority 2012, published 2015)
“Also recorded” adds a separate entry of the source. Values belong to the molecule of their own block, whether it stands above or below them. Where no end group is shown, it is not given here.

Tests used:
[1] = test system: Human iPS cells (hiPSCs); assay: Effect of E-cadherin inhibitors on cell-cell contact in pluripotent hiPSCs (phase contrast); assay type: cell-based; conditions: 48 h in MTesR complete media, adherent feeder free
Method: Human iPS cells (hiPSCs) were grown under adherent feeder-free culture conditions. All cells were propagated for a minimum of two passages as feeder-free cultures to exclude unwanted residual mouse fibroblast feeder cells. Cells were cultured in MTesR complete medium (Stem Cell Technologies). Cells were cultured on Matrigel™- (BD Biosciences 356234) coated tissue culture grade plates. Matrigel-treated plates were coated with pre-diluted Matrigel™ (1:100 in DMEM/F12 media) and incubated at room temperature prior to use. Media was replenished every 24 h and cells were passaged upon confluency. Cells were dissociated using trypsin-EDTA.
Human iPS cells were grown under standard adherent feeder-free culture conditions prior to induction of differentiation.

[2] = test system: Human iPS cells (hiPSCs); assay: Neural differentiation of hiPSCs using E-cadherin inhibitors, Nestin immunofluorescence; assay type: cell-based; conditions: day 7; for number of Nestin positive cells: treated daily, peptides 1 mM, antibody 2 μg/ml
Method: Human iPSCs were differentiated as previously described. Peptides A, B or C were supplemented to the media at a final concentration of 1 mM and E-cadherin neutralising antibody supplemented to the media at 2 μg/ml daily for 6-7 days. The equivalent volume of water was added to cultures as a vehicle control.
All other methodology was performed as outlined above in connection with neural differentiation and characterisation of resultant neural progenitor cells (NPCs). […] Accordingly, supplementation in this manner may be a preferred embodiment of methods of the invention as practiced upon pluripotent stem cells such as iPSCs.
To initiate differentiation confluent undifferentiated cells were dissociated and seeded at a low density onto gelatin coated wells in differentiation medium supplemented with/without E-cadherin-inhibitors for 7 days. To identify the phenotype of these cells, cultures were harvested at day 7 and immunofluorescent analysis of the neural progenitor cell marker Nestin was performed (FIG. 10).

[3] = molecular target: T1, human E-cadherin (human, UniProt P12830 155-882); assay: cell-based or functional assay
T1 sequence: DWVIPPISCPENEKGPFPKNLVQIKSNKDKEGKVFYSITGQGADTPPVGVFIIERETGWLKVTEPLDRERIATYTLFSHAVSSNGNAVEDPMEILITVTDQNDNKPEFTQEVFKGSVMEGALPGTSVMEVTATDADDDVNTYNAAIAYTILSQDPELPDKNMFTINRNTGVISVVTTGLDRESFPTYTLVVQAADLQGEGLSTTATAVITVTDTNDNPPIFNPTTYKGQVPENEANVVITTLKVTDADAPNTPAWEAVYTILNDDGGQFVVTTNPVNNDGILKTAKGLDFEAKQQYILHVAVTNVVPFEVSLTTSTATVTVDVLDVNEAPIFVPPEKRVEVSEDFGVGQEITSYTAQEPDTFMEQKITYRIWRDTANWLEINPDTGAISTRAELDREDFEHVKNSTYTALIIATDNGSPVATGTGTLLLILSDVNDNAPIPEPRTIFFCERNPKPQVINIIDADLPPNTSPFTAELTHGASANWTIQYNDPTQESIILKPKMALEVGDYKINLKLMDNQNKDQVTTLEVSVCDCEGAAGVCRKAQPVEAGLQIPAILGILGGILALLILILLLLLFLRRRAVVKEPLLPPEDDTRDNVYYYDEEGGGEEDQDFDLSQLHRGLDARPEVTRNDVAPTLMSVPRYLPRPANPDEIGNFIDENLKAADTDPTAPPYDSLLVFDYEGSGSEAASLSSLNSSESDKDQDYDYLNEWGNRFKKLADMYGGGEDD

[4] = test system: Human ES cells (HUES7, H9, MAN7); assay: Differentiation of human ES cells towards neural precursor cells in adherent culture, immunofluorescence of neural precursor markers; assay type: cell-based
Method: Human ES cell lines, HUES7 (passage 39-44), H9 (passage 50-55) and MAN7 (passage 18-21) were grown under adherent feeder-free culture conditions prior to induction of differentiation. Cells were cultured in STEMPRO® (Invitrogen—complete medium) which comprises; DMEM/F-12+GlutaMAX, 8 ng/ml FGF-basic factor (Peprotec), STEMPRO® hESC SFM Growth Supplement (1×), 1.8% BSA, and 0.1 Mm 2-mercaptoethanol. Cells were cultured on either Matrigel™- (BD Biosciences 356234) or Geltrex™- (Invitrogen 12760-021) coated tissue culture grade plates. Matrigel-treated plates were coated with pre-diluted Matrigel™ (1:100 in DMEM/F12 media) and incubated at room temperature prior to use. Geltrex™-coated plates were coated with pre-diluted Geltrex™ (1:29 in DMEM/F12 media) and incubated for 1 h at 37° C. prior to use. Media was replenished every 24 h and cells were passaged upon confluency. All cells were propagated for a minimum of two passages as feeder-free cultures to exclude unwanted residual mouse fibroblast feeder cells. Cells were dissociated either using trypsin-EDTA (Sigma) or Collagenase IV (Sigma-1 mg/ml final concentration) dependent on the ES cell line used.
Confluent undifferentiated cells were dissociated and seeded at a low density (2.0E5 cells/962 mm2) onto 0.1% w/v gelatin coated wells in differentiation medium alone (DMEM/F-12+GlutaMAX (Invitrogen), 10% Knockout Serum Replacement (KSR) (Invitrogen), Penicillin/Streptomycin (1×) (PAA) for 24 hours prior to media supplementation with an E-cadherin inhibiting peptide (H-Ser-Trp-Glu-Leu-Tyr-Tyr-Pro-Leu-Arg-Ala-Asn-Leu-NH2, >95% purity, acetate salt background) (Bachem) as published in Devemy & Blashuk (2009). Peptide was reconstituted at 30 mg/ml in sterile ddH2O (20 mM stock concentration), with a working concentration 500 μM for inhibition of human E-cadherin. Media (and peptide) were replenished every 2 days for 6-7 days. After this time peptide is no longer necessary. […]
Cells were fixed in 4% w/v paraformaldehyde and stained in situ (Mohamet et al, 2010). […] The cells were viewed on a Leica DM500 fluorescence microscope.

[5] = test system: Human ES cells; assay: Assessment of non-neuronal lineages in directed neural differentiation of human ES cells; assay type: cell-based
Method: Confluent undifferentiated cells were dissociated and seeded at a low density (2.0E5 cells/962 mm2) onto 0.1% w/v gelatin coated wells in differentiation medium alone (DMEM/F-12+GlutaMAX (Invitrogen), 10% Knockout Serum Replacement (KSR) (Invitrogen), Penicillin/Streptomycin (1×) (PAA) for 24 hours prior to media supplementation with an E-cadherin inhibiting peptide (H-Ser-Trp-Glu-Leu-Tyr-Tyr-Pro-Leu-Arg-Ala-Asn-Leu-NH2, >95% purity, acetate salt background) (Bachem) as published in Devemy & Blashuk (2009). Peptide was reconstituted at 30 mg/ml in sterile ddH2O (20 mM stock concentration), with a working concentration 500 μM for inhibition of human E-cadherin. Media (and peptide) were replenished every 2 days for 6-7 days. After this time peptide is no longer necessary. Morphological analysis and immunostaining with markers for neural precursor cells and more mature neural cells were performed during the course of the differentiation protocol.
Cells were fixed in 4% w/v paraformaldehyde and stained in situ (Mohamet et al, 2010). […] The cells were viewed on a Leica DM500 fluorescence microscope. […]

Molecule: SWELYYPL (Inhibitory peptide) [Peptide C]
- loss of cell-cell contact, proportion of cells [1]: 50-60%
- Nestin positive cells, one experiment (variable results) ([2]; peptide 1 mM, one experiment only): approx. 50%
- number of Nestin positive cells [2]: 76%

- loss of cell-cell contact in hiPSCs (phase contrast, 48 h, antibody 2 ug/ml) [3]: > 85%
Molecule: E-cadherin neutralising antibody (SHE78.7 clone, Invitrogen 13-5700)

Molecule: SWELYYPLRANL (SWELYYPLRANL-NH2; also: acetate salt) [Peptide A, Study 1 used H-Ser-Trp-Glu-Leu-Tyr-Tyr-Pro-Leu-Arg-Ala-Asn-Leu-NH2 (Bachem, acetate salt background)]
- undifferentiated colonies (phase contrast) ([4]; cultured 6-7 days in media supplemented with peptide): no undifferentiated colonies were observed
- number of Nestin positive cells ([4]; media supplemented with peptide 500 μM, 7 days of differentiation, n=3): 95.3%
- NESTIN and VIMENTIN expression (immunofluorescence) ([4]; peptide 500 μM, harvested at day 7): homogenous expression
- α smooth muscle actin (mesoderm) expression ([5]; cells harvested on day 15, n=3): only detected in 1 cell out of all cultures assessed
- staining of endoderm marker Forkhead box protein A2 (foxA2) ([5]; differentiated for 15 days): no positive staining
- number of Nestin positive cells [2]: 94%

Molecule: SRELYYPLRANL [Peptide B, control]
- culture morphology / cell-cell contacts [1]: retain the compacted morphology typical of hiPSCs; also recorded: retain the compacted morphology of hiPSCs, without loss of cell-cell contacts
- number of Nestin positive cells [2]: 33%

- loss of cell-cell contact in hiPSCs (phase contrast, 48 h, peptide 1 mM) [3]: > 85%
B1: Peptide A (SWELYYPLRANL) (peptide)
peptide: SWELYYPLRANL
modifications: not fully specified
